Measurements: patent publication US20120029187A1, “HALOALKYLSULFONANILIDE DERIVATIVE” (Nissan Chemical Industries, Ltd., priority 2009, published 2012)

Legend:
Format in all cases: in vivo
[1] = system: barnyardgrass; experiment: Test Example 1: herbicidal effects in preemergence treatment under submerged conditions; conditions: dose 2.52 g/a
In short: (§1)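 Weed seeds and 2.5-leaf rice seedlings shared each flooded cup of alluvial soil. Dosing, expressed as g per are, was by pouring water-diluted emulsifiable concentrate onto the surface on sowing day. Mortality was graded 0 to 5 after three weeks' growth.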

[2] = system: bulrush; experiment: as above; conditions: dose 2.52 g/a
In short: as §1

[3] = system: ducksalad; experiment: as above; conditions: dose 2.52 g/a
In short: as §1

[4] = system: transplanted rice; experiment: Test Example 1: preemergence treatment under submerged conditions, effect on crop; conditions: dose 2.52 g/a
In short: as §1

[5] = system: redroot pigweed; experiment: Test Example 3: herbicidal effects in soil treatment; conditions: dose 3.2 g/a
In short: (§2)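 Seeds were sown in sterilized diluvial soil and covered with about 1.5 cm of soil. Compounds, formulated as emulsifiable concentrates and diluted with water, were sprayed evenly over the soil surface at set doses in g/a. Herbicidal effect was scored on a rating scale three weeks later.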

[6] = system: giant foxtail; experiment: as above; conditions: dose 3.2 g/a
In short: as §2

[7] = system: water foxtail; experiment: as above; conditions: dose 3.2 g/a
In short: as §2

[8] = system: common lambsquater; experiment: as above; conditions: dose 3.2 g/a
In short: as §2

[9] = system: large crabgrass; experiment: as above; conditions: dose 3.2 g/a
In short: as §2

[10] = system: barnyardgrass; experiment: as above; conditions: dose 3.2 g/a
In short: as §2

[11] = system: velvetleaf; experiment: as above; conditions: dose 3.2 g/a
In short: as §2

[12] = system: common ragweed; experiment: as above; conditions: dose 3.2 g/a
In short: as §2

[13] = system: common chickweed; experiment: as above; conditions: dose 3.2 g/a
In short: as §2

[14] = system: Italian ryegrass; experiment: as above; conditions: dose 3.2 g/a
In short: as §2

[15] = system: posumbu knotweed; experiment: as above; conditions: dose 3.2 g/a
In short: as §2

[16] = system: barnyardgrass; experiment: Test Example 2: herbicidal effects during the vegetation period under submerged conditions; conditions: treatment during the vegetation period under submerged conditions; dose 2.52 g/a
In short: (§3)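 Barnyardgrass, bulrush and ducksalad were co-sown in alluvial soil flooded to 4 cm and grown in a greenhouse at 25 to 30° C. At the 1- or 2-leaf stage, water-diluted emulsifiable concentrates went onto the water surface at set doses (g/a). Herbicidal effect was scored three weeks later on a graded scale.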

[17] = system: bulrush; experiment: as above; conditions: treatment during the vegetation period under submerged conditions; dose 2.52 g/a
In short: as §3

[18] = system: ducksalad; experiment: as above; conditions: treatment during the vegetation period under submerged conditions; dose 2.52 g/a
In short: as §3

[19] = system: redroot pigweed; experiment: Test Example 4: herbicidal effect in foliage treatment; conditions: dose 3.2 g/a
In short: (§4)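 Herbicidal effect was rated on an evaluation scale three weeks after treatment. Plants had been raised 14 days at 25 to 30° C in sterilized diluvial soil, then received foliar sprays of emulsifiable concentrate diluted in water at predetermined doses expressed as g per are.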

[20] = system: beadstraw; experiment: as above; conditions: dose 3.2 g/a
In short: as §4

[21] = system: giant foxtail; experiment: as above; conditions: dose 3.2 g/a
In short: as §4

[22] = system: water foxtail; experiment: as above; conditions: dose 3.2 g/a
In short: as §4

[23] = system: common lambsquater; experiment: as above; conditions: dose 3.2 g/a
In short: as §4

[24] = system: large crabgrass; experiment: as above; conditions: dose 3.2 g/a
In short: as §4

[25] = system: barnyardgrass; experiment: as above; conditions: dose 3.2 g/a
In short: as §4

[26] = system: velvetleaf; experiment: as above; conditions: dose 3.2 g/a
In short: as §4

[27] = system: common ragweed; experiment: as above; conditions: dose 3.2 g/a
In short: as §4

[28] = system: common chickweed; experiment: as above; conditions: dose 3.2 g/a
In short: as §4

[29] = system: Italian ryegrass; experiment: as above; conditions: dose 3.2 g/a
In short: as §4

[30] = system: posumbu knotweed; experiment: as above; conditions: dose 3.2 g/a
In short: as §4

[31] = three weeks after the application

## CCC1(C)CC(=O)N(Cc2ccccc2N(C(=O)OCC(C)C)S(=O)(=O)C(F)(F)F)CO1 (stereo not drawn) [II-43]
[1]
  A: barnyardgrass, herbicidal effect (evaluation scale 0-5): 5 (mortality of 90% or above (nearly complete death))
[2]
  B: bulrush, herbicidal effect (evaluation scale 0-5): 5 (mortality of 90% or above (nearly complete death))
[3]
  C: ducksalad, herbicidal effect (evaluation scale 0-5): 5 (mortality of 90% or above (nearly complete death))
[4]
  a: transplanted rice, effect on crop (evaluation scale 0-5): 0 (mortality of less than 5% (almost ineffective))
[5]
  K: redroot pigweed, herbicidal effect (evaluation scale 0-5): 2 (mortality of at least 20% and less than 40%)
[6]
  E: giant foxtail, herbicidal effect (evaluation scale 0-5): 2 (mortality of at least 20% and less than 40%)
[7]
  G: water foxtail, herbicidal effect (evaluation scale 0-5): 5 (mortality of 90% or above (nearly complete death))
[8]
  L: common lambsquater, herbicidal effect (evaluation scale 0-5): 5 (mortality of 90% or above (nearly complete death))
[9]
  D: large crabgrass, herbicidal effect (evaluation scale 0-5): 3 (mortality of at least 40% and less than 70%)
[10]
  A: barnyardgrass, herbicidal effect (evaluation scale 0-5): 4 (mortality of at least 70% and less than 90%)
[11]
  I: velvetleaf, herbicidal effect (evaluation scale 0-5): 5 (mortality of 90% or above (nearly complete death))
[12]
  J: common ragweed, herbicidal effect (evaluation scale 0-5): 3 (mortality of at least 40% and less than 70%)
[13]
  N: common chickweed, herbicidal effect (evaluation scale 0-5): 5 (mortality of 90% or above (nearly complete death))
[14]
  H: Italian ryegrass, herbicidal effect (evaluation scale 0-5): 5 (mortality of 90% or above (nearly complete death))
[15]
  M: posumbu knotweed, herbicidal effect (evaluation scale 0-5): 4 (mortality of at least 70% and less than 90%)
[16]
  A: barnyardgrass, herbicidal effect (evaluation scale 0-5): 5 (mortality of 90% or above (nearly complete death))
[17]
  B: bulrush, herbicidal effect (evaluation scale 0-5): 5 (mortality of 90% or above (nearly complete death))
[18]
  C: ducksalad, herbicidal effect (evaluation scale 0-5): 5 (mortality of 90% or above (nearly complete death))
[19]; three weeks after application
  K: redroot pigweed, herbicidal effect: 0 (mortality of less than 5% (almost ineffective))
[20]; three weeks after application
  O: beadstraw, herbicidal effect: 4 (mortality of at least 70% and less than 90%)
[21]; three weeks after application
  E: giant foxtail, herbicidal effect: 4 (mortality of at least 70% and less than 90%)
[22]; three weeks after application
  G: water foxtail, herbicidal effect: 5 (mortality of 90% or above (nearly complete death))
[23]; three weeks after application
  L: common lambsquater, herbicidal effect: 2 (mortality of at least 20% and less than 40%)
[24]; three weeks after application
  D: large crabgrass, herbicidal effect: 1 (mortality of at least 5% and less than 20%)
[25]; three weeks after application
  A: barnyardgrass, herbicidal effect: 5 (mortality of 90% or above (nearly complete death))
[26]; three weeks after application
  I: velvetleaf, herbicidal effect: 5 (mortality of 90% or above (nearly complete death))
[27]; three weeks after application
  J: common ragweed, herbicidal effect: 3 (mortality of at least 40% and less than 70%)
[28]; three weeks after application
  N: common chickweed, herbicidal effect: 3 (mortality of at least 40% and less than 70%)
[29]; three weeks after application
  H: Italian ryegrass, herbicidal effect: 4 (mortality of at least 70% and less than 90%)
[30]; three weeks after application
  M: posumbu knotweed, herbicidal effect: 0 (mortality of less than 5% (almost ineffective))

## CCOC(=O)N(c1ccccc1CN1OCC(C)(C)OC1=O)S(=O)(=O)C(F)(F)F [III-11]
[1]
  A: barnyardgrass, herbicidal effect (evaluation scale 0-5): 5 (mortality of 90% or above (nearly complete death))
[2]
  B: bulrush, herbicidal effect (evaluation scale 0-5): 5 (mortality of 90% or above (nearly complete death))
[3]
  C: ducksalad, herbicidal effect (evaluation scale 0-5): 5 (mortality of 90% or above (nearly complete death))
[4]
  a: transplanted rice, effect on crop (evaluation scale 0-5): 0 (mortality of less than 5% (almost ineffective))
[5]
  herbicidal effect, K: redroot pigweed: 3 (mortality of at least 40% and less than 70%)
[6]
  herbicidal effect, E: giant foxtail: 5 (mortality of 90% or above (nearly complete death))
[7]
  herbicidal effect, G: water foxtail: 5 (mortality of 90% or above (nearly complete death))
[8]
  herbicidal effect, L: common lambsquater: 5 (mortality of 90% or above (nearly complete death))
[9]
  herbicidal effect, D: large crabgrass: 5 (mortality of 90% or above (nearly complete death))
[10]
  herbicidal effect, A: barnyardgrass: 5 (mortality of 90% or above (nearly complete death))
[11]
  herbicidal effect, I: velvetleaf: 4 (mortality of at least 70% and less than 90%)
[12]
  herbicidal effect, J: common ragweed: 5 (mortality of 90% or above (nearly complete death))
[13]
  herbicidal effect, N: common chickweed: 5 (mortality of 90% or above (nearly complete death))
[14]
  herbicidal effect, H: Italian ryegrass: 4 (mortality of at least 70% and less than 90%)
[15]
  herbicidal effect, M: posumbu knotweed: 5 (mortality of 90% or above (nearly complete death))
[16]
  A: barnyardgrass, herbicidal effect (evaluation scale 0-5): 5 (mortality of 90% or above (nearly complete death))
[17]
  B: bulrush, herbicidal effect (evaluation scale 0-5): 5 (mortality of 90% or above (nearly complete death))
[18]
  C: ducksalad, herbicidal effect (evaluation scale 0-5): 5 (mortality of 90% or above (nearly complete death))
[19]; [31]
  K: redroot pigweed, herbicidal effect: 2 (mortality of at least 20% and less than 40%)
[20]; [31]
  O: beadstraw, herbicidal effect: 5 (mortality of 90% or above (nearly complete death))
[21]; [31]
  E: giant foxtail, herbicidal effect: 4 (mortality of at least 70% and less than 90%)
[22]; [31]
  G: water foxtail, herbicidal effect: 5 (mortality of 90% or above (nearly complete death))
[23]; [31]
  L: common lambsquater, herbicidal effect: 4 (mortality of at least 70% and less than 90%)
[24]; [31]
  D: large crabgrass, herbicidal effect: 0 (mortality of less than 5% (almost ineffective))
[25]; [31]
  A: barnyardgrass, herbicidal effect: 5 (mortality of 90% or above (nearly complete death))
[26]; [31]
  I: velvetleaf, herbicidal effect: 4 (mortality of at least 70% and less than 90%)
[27]; [31]
  J: common ragweed, herbicidal effect: 4 (mortality of at least 70% and less than 90%)
[28]; [31]
  N: common chickweed, herbicidal effect: 5 (mortality of 90% or above (nearly complete death))
[29]; [31]
  H: Italian ryegrass, herbicidal effect: 3 (mortality of at least 40% and less than 70%)
[30]; [31]
  M: posumbu knotweed, herbicidal effect: 4 (mortality of at least 70% and less than 90%)
